Like-named read-outs stand apart in the source and are kept apart here.
Assays:
in vitro = conditions: human
HIV-1 [1] = assay: microbe, parasite or virus in culture
HIV-1 [2] = conditions: read-out: IC50 against HIV-1; cited from earlier work
[3] = cited from earlier work
IAV = assay: Anti-IAV bioassay; type: cell-based; conditions: Influenza A virus, read-out: Inhibition Rate (%) against IAV, positive control
influenza A virus (IAV) = conditions: cited from earlier work

Compound `C/C=C(\C)C(=O)O[C@@H]1[C@@H]2C=C3[C@@H]4CC(=O)O[C@@H](c5ccoc5)[C@]4(C)CC[C@@H]3[C@]3(C)[C@@H](CC(=O)OC)[C@]1(C)CO[C@]23O` [Compound 6, granatumin L] has a CC50 (in vitro) of over 100 µM, an IC50 (HIV-1 [1]; Human immunodeficiency virus 1, SUP-T1, read-out: IC50 Value (μM) against HIV-1) of 19.23 ± 0.12 µM and an inhibition at 20 µM (HIV-1 [1]; Human immunodeficiency virus 1, SUP-T1, read-out: Inhibition Rate (20.0 μM) (%) against HIV-1) of 67.1 ± 3.04%.

For `CC[C@H](C)C(=O)O[C@@H]1C(=O)[C@@]2(OC(=O)C(C)C)[C@@]3(O)C[C@@]1(C)[C@H](CC(=O)OC)[C@@]3(C)[C@H]1CC[C@@]3(C)[C@H](c4ccoc4)OC(=O)C[C@]34O[C@]142` [Krishnolide A], the IC50 (HIV-1 [2]) is given as 17.4 ± 1.65 µM and the CC50 [3] is given as 78.5 ± 1.69 µM.

Work on `NC(=O)c1ncn([C@@H]2O[C@H](CO)[C@@H](O)[C@H]2O)n1` [ribavirin] yielded an inhibition at 60 µM (IAV) of 87.5 ± 2.86%.

For `COC(=O)C[C@@H]1[C@@]2(C)[C@H]3CC[C@]4(C)C(=C3[C@@]3(O)[C@@H](OC(C)=O)C(=O)[C@]1(C)C[C@@]23O)CC(=O)O[C@H]4c1ccoc1` [thaixylomolin I], the “antiviral activity against influenza A virus (IAV), in words” value (from here on “antiviral activity”) (influenza A virus (IAV)) is given as “moderate antiviral activity” and the IC50 (influenza A virus (IAV); read-out: IC50 against IAV) is given as 77.1 ± 8.7 µM.

In the case of `COC(=O)C[C@H]1[C@@]2(C)C[C@]3(O)[C@H](C(=O)[C@H]2OC(C)=O)C2=C4CC(=O)O[C@@H](c5ccoc5)[C@]4(C)CC[C@@H]2[C@]13C` [thaixylomolin K], the “antiviral activity” value (influenza A virus (IAV)) is listed as “moderate antiviral activity”.

In the case of `COC(=O)C[C@H]1[C@@]2(C)C[C@]3(O)[C@H](C(=O)[C@H]2OC(C)=O)C2=C(CC[C@]4(C)C2=CC(=O)O[C@H]4c2ccoc2)[C@]13C` [thaixylomolin M], the “antiviral activity” value (influenza A virus (IAV)) is listed as “moderate antiviral activity”.
